{"source": "patent US11617726B2", "about": "“Method for preventing, treating, or ameliorating a microbial infection” (priority 2018, dated 2023)", "system": "Acinetobacter baumannii isolates", "test": "Antimicrobial susceptibility test, disc diffusion method (CLSI M100-S24)", "type": "cell-based", "set-up": "key to Inhibition zone: “NZ” indicated that no zone of inhibition was observed", "conditions": "for susceptibility category: AK disc; for Inhibition zone: disc diffusion", "procedure": "A total of 33 non-duplicate, non-consecutive clinical isolates of Multi-Drug Resistant (MDR) Acinetobacter baumannii were collected from burn wards (“AB1-AB33”). Acinetobacter baumannii ATCC BAA 747 and Pseudomonas aeruginosa ATCC 27853 were used as control strains. The isolates were stored at −80° C. in trypticase soy broth containing 20% glycerol.\nAntimicrobial susceptibility tests of the collection of isolates were conducted using the disc diffusion method. The experiment was performed according to the recommendations and guidelines of Clinical Laboratory Standard Institutes (CLSI M100-S24; 2014). Clinical and Laboratory Standards Institute (CLSI), “Performance standards for antimicrobial susceptibility testing; twenty-fourth informational supplement,” Document M100-S24, Clinical and Laboratory Standards Institute (CLSI), Wayne, Pa., USA, 2014.\nA panel of commercial antibiotic discs (Amoxicillin (AMX), Amoxicillin/clavulanic acid (AMX/CLA), Piperacillin (PIP), Piperacillin/Tazobactam (PIP/TAZ), Ceftazidime (CAZ), Cefotaxime (CTX), Cefepime (FEP), Cefoxitin (FOX), Aztreonam (ATM), Imipenem (IP), Gentamicin (GEN), Amikacin (AK), Neomycin (NEO), Levofloxacin (LEV), Chloramphenicol (CHL), Tetracycline (TET), sulfamethoxazole/trimethoprim (SUL/TRI) was used for susceptibility testing. All commercial antibiotic discs were purchased from BBL (Becton Dickinson, USA).\nForty grams of Mueller-Hinton Agar (MHA) were suspended in 1 Liter distilled water and then boiled to dissolve the powder completely. The medium was sterilized by autoclaving at 121° C. for 15 min. After autoclaving, the medium was cooled to 45° C. and 25 mL of molten agar media was poured into sterile Petri dishes (90 mm diameter) to give a depth of about 4 mm. The surface of the agar was dried to remove excess moisture before use. The plates were stored at 4-8° C. in sealed plastic bags if not used immediately.\nThe inoculum suspension was prepared by selecting three to five morphologically similar colonies from overnight growth (16-24 h of incubation) on blood agar medium. […] The suspension density was measured using a UV spectrophotometer calibrated with a 0.5 McFarland standard. The density of the suspension was adjusted to McFarland 0.5 by addition of saline or more microorganisms. The adjusted inoculum suspension was used within 60 min of preparation.\nA sterile cotton swab was dipped into the bacterial suspension and the excess fluid was removed by turning the swab against the inside wall of the tube to avoid over-inoculation of plates. The inoculum was spread evenly over the entire surface of the agar plate by swabbing in three directions.\nThe predetermined panel of antimicrobial disks was applied firmly on the inoculated Mueller-Hinton agar surface within 15 min of inoculation of the plates by a disc dispenser device. A maximum of six disks were accommodated on a 90-mm circular plate.\nWithin 15 min of application of antimicrobial disks, the plates were inverted and incubated aerobically at 35-37° C. for 18-20 h.\nAfter incubation, inhibition zones were measured at the point where no obvious growth is detected by the unaided eye when the plate is held about 30 cm from the eye. Inhibition zone diameters were measured to the nearest millimeter with a ruler. The plates were read from the back of the plate with reflected light against a dark background. Zone diameters were interpreted and categorized as susceptible “S”, intermediate “I”, or resistant “R” according to the CLSI clinical breakpoint tables (see Table 1 and Table 2).", "data": [{"smiles": "NCC[C@H](O)C(=O)N[C@@H]1C[C@H](N)[C@@H](O[C@H]2O[C@H](CN)[C@@H](O)[C@H](O)[C@H]2O)[C@H](O)[C@H]1O[C@H]1O[C@H](CO)[C@@H](O)[C@H](N)[C@H]1O", "note": "[AK, Amikacin]", "values": [{"measurement": "susceptibility category", "setting": "isolate AB1", "result": "S (Sensitive ≥17)"}, {"measurement": "Inhibition zone", "setting": "isolate AB1", "result": 24, "unit": "mm"}, {"measurement": "susceptibility category", "setting": "isolate AB2", "result": "S (Sensitive ≥17)"}, {"measurement": "Inhibition zone", "setting": "isolate AB2", "result": 20, "unit": "mm"}, {"measurement": "susceptibility category", "setting": "isolate AB3", "result": "S (Sensitive ≥17)"}, {"measurement": "Inhibition zone", "setting": "isolate AB3", "result": 26, "unit": "mm"}, {"measurement": "susceptibility category", "setting": "isolate AB4", "result": "S (Sensitive ≥17)"}, {"measurement": "Inhibition zone", "setting": "isolate AB4", "result": 21, "unit": "mm"}, {"measurement": "Inhibition zone", "setting": "isolate AB5", "result": 7, "unit": "mm"}, {"measurement": "susceptibility category", "setting": "isolate AB6", "result": "S (Sensitive ≥17)"}, {"measurement": "Inhibition zone", "setting": "isolate AB6", "result": 30, "unit": "mm"}, {"measurement": "Inhibition zone", "setting": "isolate AB7", "result": "NZ"}, {"measurement": "Inhibition zone", "setting": "isolate AB8", "result": 12, "unit": "mm"}, {"measurement": "susceptibility category", "setting": "isolate AB9", "result": "S (Sensitive ≥17)"}, {"measurement": "Inhibition zone", "setting": "isolate AB9", "result": 22, "unit": "mm"}, {"measurement": "Inhibition zone", "setting": "isolate AB10", "result": "NZ"}, {"measurement": "Inhibition zone", "setting": "isolate AB11", "result": "NZ"}, {"measurement": "susceptibility category", "setting": "isolate AB12", "result": "S (Sensitive ≥17)"}, {"measurement": "Inhibition zone", "setting": "isolate AB12", "result": 21, "unit": "mm"}, {"measurement": "susceptibility category", "setting": "isolate AB13", "result": "S (Sensitive ≥17)"}, {"measurement": "Inhibition zone", "setting": "isolate AB13", "result": 22, "unit": "mm"}, {"measurement": "Inhibition zone", "setting": "isolate AB14", "result": "NZ"}, {"measurement": "Inhibition zone", "setting": "isolate AB15", "result": 13, "unit": "mm"}, {"measurement": "susceptibility category", "setting": "isolate AB16", "result": "S (Sensitive ≥17)"}, {"measurement": "Inhibition zone", "setting": "isolate AB16", "result": 19, "unit": "mm"}, {"measurement": "susceptibility category", "setting": "isolate AB17", "result": "S (Sensitive ≥17)"}, {"measurement": "Inhibition zone", "setting": "isolate AB17", "result": 22, "unit": "mm"}, {"measurement": "Inhibition zone", "setting": "isolate AB18", "result": 14, "unit": "mm"}, {"measurement": "Inhibition zone", "setting": "isolate AB19", "result": 14, "unit": "mm"}, {"measurement": "Inhibition zone", "setting": "isolate AB20", "result": "NZ"}, {"measurement": "Inhibition zone", "setting": "isolate AB21", "result": 11, "unit": "mm"}, {"measurement": "Inhibition zone", "setting": "isolate AB22", "result": "NZ"}, {"measurement": "Inhibition zone", "setting": "isolate AB23", "result": "NZ"}, {"measurement": "Inhibition zone", "setting": "isolate AB24", "result": 14, "unit": "mm"}, {"measurement": "Inhibition zone", "setting": "isolate AB25", "result": "NZ"}, {"measurement": "susceptibility category", "setting": "isolate AB26", "result": "S (Sensitive ≥17)"}, {"measurement": "Inhibition zone", "setting": "isolate AB26", "result": 18, "unit": "mm"}, {"measurement": "Inhibition zone", "setting": "isolate AB27", "result": 9, "unit": "mm"}, {"measurement": "Inhibition zone", "setting": "isolate AB28", "result": 15, "unit": "mm"}, {"measurement": "Inhibition zone", "setting": "isolate AB29", "result": 15, "unit": "mm"}, {"measurement": "Inhibition zone", "setting": "isolate AB30", "result": 15, "unit": "mm"}, {"measurement": "Inhibition zone", "setting": "isolate AB31", "result": "NZ"}, {"measurement": "Inhibition zone", "setting": "isolate AB32", "result": "NZ"}, {"measurement": "susceptibility category", "setting": "isolate AB33", "result": "S (Sensitive ≥17)"}, {"measurement": "Inhibition zone", "setting": "isolate AB33", "result": 25, "unit": "mm"}]}, {"smiles": "O=C(N[C@H](CO)[C@H](O)c1ccc([N+](=O)[O-])cc1)C(Cl)Cl", "note": "[CHL, Chloramphenicol]", "values": [{"measurement": "Inhibition zone", "setting": "isolate AB1", "result": "NZ"}, {"measurement": "Inhibition zone", "setting": "isolate AB2", "result": 24, "unit": "mm"}, {"measurement": "Inhibition zone", "setting": "isolate AB3", "result": 26, "unit": "mm"}, {"measurement": "Inhibition zone", "setting": "isolate AB4", "result": 23, "unit": "mm"}, {"measurement": "Inhibition zone", "setting": "isolate AB5", "result": 8, "unit": "mm"}, {"measurement": "Inhibition zone", "setting": "isolate AB6", "result": "NZ"}, {"measurement": "Inhibition zone", "setting": "isolate AB7", "result": "NZ"}, {"measurement": "Inhibition zone", "setting": "isolate AB8", "result": 7, "unit": "mm"}, {"measurement": "Inhibition zone", "setting": "isolate AB9", "result": 24, "unit": "mm"}, {"measurement": "Inhibition zone", "setting": "isolate AB10", "result": "NZ"}, {"measurement": "Inhibition zone", "setting": "isolate AB11", "result": "NZ"}, {"measurement": "Inhibition zone", "setting": "isolate AB12", "result": "NZ"}, {"measurement": "Inhibition zone", "setting": "isolate AB13", "result": "NZ"}, {"measurement": "Inhibition zone", "setting": "isolate AB14", "result": "NZ"}, {"measurement": "Inhibition zone", "setting": "isolate AB15", "result": 10, "unit": "mm"}, {"measurement": "Inhibition zone", "setting": "isolate AB16", "result": 30, "unit": "mm"}, {"measurement": "Inhibition zone", "setting": "isolate AB17", "result": 13, "unit": "mm"}, {"measurement": "Inhibition zone", "setting": "isolate AB18", "result": 8, "unit": "mm"}, {"measurement": "Inhibition zone", "setting": "isolate AB19", "result": 8, "unit": "mm"}, {"measurement": "Inhibition zone", "setting": "isolate AB20", "result": "NZ"}, {"measurement": "Inhibition zone", "setting": "isolate AB21", "result": "NZ"}, {"measurement": "Inhibition zone", "setting": "isolate AB22", "result": "NZ"}, {"measurement": "Inhibition zone", "setting": "isolate AB23", "result": "NZ"}, {"measurement": "Inhibition zone", "setting": "isolate AB24", "result": 8, "unit": "mm"}, {"measurement": "Inhibition zone", "setting": "isolate AB25", "result": "NZ"}, {"measurement": "Inhibition zone", "setting": "isolate AB26", "result": 25, "unit": "mm"}, {"measurement": "Inhibition zone", "setting": "isolate AB27", "result": "NZ"}, {"measurement": "Inhibition zone", "setting": "isolate AB28", "result": 14, "unit": "mm"}, {"measurement": "Inhibition zone", "setting": "isolate AB29", "result": 12, "unit": "mm"}, {"measurement": "Inhibition zone", "setting": "isolate AB30", "result": 11, "unit": "mm"}, {"measurement": "Inhibition zone", "setting": "isolate AB31", "result": 8, "unit": "mm"}, {"measurement": "Inhibition zone", "setting": "isolate AB32", "result": 9, "unit": "mm"}, {"measurement": "Inhibition zone", "setting": "isolate AB33", "result": 18, "unit": "mm"}]}]}
